MIC and IC50 data for 26 compounds are collected here from EP2141164A1, “New 1,2,4-triazine derivatives and biological applications thereof” (priority 2008, dated 2010).

Some results are limits rather than exact numbers.

For the first experiment, the system named is E. coli K12 AcrAB- TolC-. Kind of experiment: Sensitization to complement killing assay (MIC with/without serum). Type of experiment: cell-based. To be noted: Escherichia coli, read-out: MIC for E. coli K12 AcrAB- TolC-, FBS=0 (MH2 broth only); 18-22H at 35°C. The protocol:
The Gram-negative bacteria E. coli K12 AcrAB-/TolC- (K12 strain for which efflux pump components AcrA, AcrB and TolC have been deleted) is grown on Müller Hinton agar (MHA) overnight at 35°C. Five well isolated colonies from overnight agar growth are then added to 10 mL of cation adjusted Müller-Hinton Broth (MH2) and incubated at 35°C with constant shaking for two hours to reach the exponential phase. The suspension is then diluted to obtain an inoculum of 1.5E+04 CFU/mL. Viable counts are obtained by plating 10 to 1000-fold dilutions of the suspension on MHA. A solution of decomplemented Foetal Bovine Serum (dFBS) is prepared by heating normal FBS at 56°C for 30min. Compound dilutions are prepared in DMSO/water 20/80 in polypropylene plates. The following components are added on a polystyrene sterile culture plate in a final volume of 100µL: 5µL of compound in 20% DMSO, 30µL of FBS (30% final) or dFBS (30% final) or MH2 (0% FBS), 65µL of bacterial suspension at 1.5e4 CFU/mL (final inoculum of 1e4 CFU/mL). After 18-22H at 35°C incubation, the MIC of the compound in the presence of FBS 30%, dFBS 30% or FBS 0% is determined by visual inspection of bacterial pellets.
As a reminder, the MIC is the lowest concentration that inhibits growth of the organism. Consider `O=C(COc1ccc2sc(CNc3nncc(-c4c(Cl)cccc4Cl)n3)nc2c1)NCCO` [Example 18, 2-(2-{[5-(2,6-Dichloro-phenyl)-[1,2,4]triazin-3-ylamino]-methyl}-benzothiazol-5-yloxy)-N-(2-hydroxy-ethyl)-acetamide], for which the MIC is above 32 µg/mL.

Still in this experiment, the particulars now being: Escherichia coli, read-out: MIC for E. coli K12 AcrAB- TolC-, decomplemented FBS=30%; 18-22H at 35°C.
For the compound `O=C(COc1ccc2sc(CNc3nncc(-c4c(Cl)cccc4Cl)n3)nc2c1)NCCO` [Example 18, 2-(2-{[5-(2,6-Dichloro-phenyl)-[1,2,4]triazin-3-ylamino]-methyl}-benzothiazol-5-yloxy)-N-(2-hydroxy-ethyl)-acetamide], the MIC is above 32 µg/mL.

Still in this experiment, the particulars now being: Escherichia coli, read-out: MIC for E. coli K12 AcrAB- TolC-, normal (complemented) FBS=30%; 18-22H at 35°C.
With `O=C(COc1ccc2sc(CNc3nncc(-c4c(Cl)cccc4Cl)n3)nc2c1)NCCO` [Example 18, 2-(2-{[5-(2,6-Dichloro-phenyl)-[1,2,4]triazin-3-ylamino]-methyl}-benzothiazol-5-yloxy)-N-(2-hydroxy-ethyl)-acetamide], the MIC is 4 µg/mL.

The target in a further experiment is T1, RfaE (Escherichia coli, UniProt P76658).
T1 construct: made in house; host or cells: E.coli
T1 sequence (P76658 whole entry): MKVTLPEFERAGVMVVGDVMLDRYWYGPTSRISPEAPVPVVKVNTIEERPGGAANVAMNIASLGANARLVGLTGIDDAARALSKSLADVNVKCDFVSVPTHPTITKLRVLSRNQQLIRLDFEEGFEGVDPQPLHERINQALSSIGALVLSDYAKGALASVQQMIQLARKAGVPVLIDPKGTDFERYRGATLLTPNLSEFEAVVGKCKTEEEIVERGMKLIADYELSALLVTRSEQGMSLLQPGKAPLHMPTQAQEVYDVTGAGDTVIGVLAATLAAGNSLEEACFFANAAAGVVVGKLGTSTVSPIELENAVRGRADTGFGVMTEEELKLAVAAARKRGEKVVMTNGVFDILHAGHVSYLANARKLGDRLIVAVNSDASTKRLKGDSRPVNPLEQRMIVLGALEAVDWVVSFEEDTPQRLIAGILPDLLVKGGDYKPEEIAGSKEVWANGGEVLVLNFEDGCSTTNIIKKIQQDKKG
Description: RfaE luminescent assay (inhibition of the enzymatic activity of RfaE). The settings on record: luminescent ATP detection; 3 nM RfaE, 0.2 µM β-heptose-7-phosphate, 0.2 µM ATP; 30 min pre-incubation. Type of experiment: biochemical, E.coli. An excerpt: RfaE is a kinase sharing similarities with the ribokinases family. It catalyses an essential step of the biosynthesis of L-ADP-Heptose, namely the phosphorylation of β-heptose-7-phosphate (H7P) into β-heptose-1,7-bisphosphate (H1,7P). RfaE assays as described in the literature are essentially based on direct HLPC detection of the substrates H7P and ATP, and of the products H1,7P and ADP, raising obvious limitations for HTS applications. The assays described below are based either on luminescent ATP detection, or on fluorescent ADP detection. They are easily amenable to miniaturized formats and fast readouts as required by HTS.
The assay buffer "AB" contains 50 mM Hepes pH=7.5, 1 mM MnCl2, 25 mM KCI, 0.012% Triton-X100 and 1 mM DTT (Dithiothreitol). The following components are added in a white polystyrene Costar plate up to a final volume of 31 µL: 3 µL DMSO, or inhibitor dissolved in DMSO and 28 µL RfaE in AB. After 30min of pre-incubation at room temperature, 29 µL of Substrates mix in AB are added in each well to a final volume of 60 µL. This reaction mixture is then composed of 3 nM RfaE (produced in house from E.coli), 0.2 µM β -heptose-7-phosphate (in house synthesis) and 0.2 µM ATP (Sigma) in assay buffer. After 40min of incubation at room temperature, 200 µL of the revelation mix are added to a final volume of 260 µL, including the following constituents at the respective final concentrations: 2 nM luciferase (Sigma), 30 µM D-luciferin (Sigma), 100 µM N-acetylcysteamine (Aldrich). Luminescence intensity is immediately measured on an Analyst-HT (Molecular Devices) and converted into inhibition percentages.
For IC50 determinations, the inhibitor is tested at 6 to 10 different concentrations, and the related inhibitions are fitted to a classical langmuir equilibrium model using XLFIT (IDBS).
The term IC50 denotes the point on the concentration scale where inhibition reaches its midpoint. `Cc1nc(CNc2nncc(-c3ccccc3Cl)n2)sc1C` [Example 9, 5-(2-Chlorophenyl)-N-[(4,5-dimethyl-1,3-thiazol-2-yl)methyl]-1,2,4-triazin-3-amine] had an IC50 of 4300 nM.

As for `COc1ccc2sc(CNc3nncc(-c4c(Cl)cccc4Cl)n3)nc2c1` [Example 15, 5-(2,6-Dichlorophenyl)-N-[(5-methoxy-1,3-benzothiazol-2-yl)methyl]-1,2,4-triazin-3-amine], the IC50 was determined as 130 nM. Against the preceding compound, the IC50 is about 33-fold lower.

Compound `OCCOc1ccc2sc(CNc3nncc(-c4c(Cl)cccc4Cl)n3)nc2c1` [Example 16, 2-{[2-({[5-(2,6-Dichlorophenyl)-1,2,4-triazin-3-yl]amino}methyl)-1,3-benzothiazol-5-y]oxy}ethanol] gave an IC50 of 18 nM.

Compound `O=C(O)COc1ccc2sc(CNc3nncc(-c4c(Cl)cccc4Cl)n3)nc2c1` [Example 17, {[2-({[5-(2,6-dichlorophenyl)-1,2,4-triazin-3-yl]amino}methyl)-1,3-benzothiazol-5-yl]oxy}acetic acid] came in with an IC50 of 19 nM.

In turn, `O=C(COc1ccc2sc(CNc3nncc(-c4c(Cl)cccc4Cl)n3)nc2c1)NCCO` [Example 18, 2-(2-{[5-(2,6-Dichloro-phenyl)-[1,2,4]triazin-3-ylamino]-methyl}-benzothiazol-5-yloxy)-N-(2-hydroxy-ethyl)-acetamide] gave an IC50 of 47 nM.

In the case of `CN(C)CCNC(=O)COc1ccc2sc(CNc3nncc(-c4c(Cl)cccc4Cl)n3)nc2c1` [Example 19, 2-(2-{[5-(2,6-Dichloro-phenyl)-[1,2,4]triazin-3-ylamino]-methyl}-benzothiazol-5-yloxy)-N-(2-dimethylamino-ethyl)-acetamide], the IC50 was found to be 165 nM.

In the case of `CC(=O)COc1ccc2sc(CNc3nncc(-c4c(Cl)cccc4Cl)n3)nc2c1` [Example 20, 1-{[2-({[5-(2,6-Dichlorophenyl)-1,2,4-triazin-3-yl]amino}methyl)-1,3-benzothiazol-5-yl]oxy}acetone], the IC50 is 77 nM.

Consider `NC(=O)COc1ccc2sc(CNc3nncc(-c4c(Cl)cccc4Cl)n3)nc2c1` [Example 21, 2-{[2-({[5-(2,6-Dichlorophenyl)-1,2,4-triazin-3-yl]amino}methyl)-1,3-benzothiazol-5-yl]oxy}acetamide], for which 67 nM corresponded to half-maximal inhibition (IC50). The IC50 values of the last two compounds are within 1.5-fold of each other.

For the compound `COc1ccc2ccccc2c1-c1cnnc(NCc2nc3ccccc3s2)n1` [Example 22, Benzothiazol-2-ylmethyl-[5-(2-methoxy-naphthalen-1-yl)-[1,2,4]triazin-3-yl]-amine], the IC50 came out at 130 nM. Compared with the last compound, the IC50 is about 1.9-fold higher.

In turn, `COc1ccc2sc(CNc3nncc(-c4c(OC)ccc5ccccc45)n3)nc2c1` [Example 29, N-[(5-Methoxy-1,3-benzothiazol-2-yl)methyl]-5(2-methoxy-1-naphthyl)-1,2,4-triazin-3-amine] yielded a concentration for half-maximal inhibition (IC50) of 51 nM.

As for `Oc1ccc2ccccc2c1-c1cnnc(NCc2nc3ccccc3s2)n1` [Example 32, 1-{3-[(Benzothiazol-2-ylmethyl)-amino]-[1,2,4]triazin-5-yl}-naphthalen-2-ol], 63 nM corresponded to half-maximal inhibition (IC50).

`Oc1ccc2sc(CNc3nncc(-c4c(O)ccc5ccccc45)n3)nc2c1` [Example 33, 2-{[5-(2-Hydroxy-naphthalen-1-yl)-[1,2,4]triazin-3-ylamino]-methyl}-benzothiazol-5-ol] showed an IC50 of 20 nM.

In the case of `COc1ccc2sc(CNc3nncc(-c4c(C)cccc4O)n3)nc2c1` [Example 35, 2-(3-{[(5-Methoxy-1,3-benzothiazol-2-yl)methyl]amino}-1,2,4-triazin-5-yl)-3-methylphenol], the IC50 was found to be 69 nM.

`Cc1cccc(O)c1-c1cnnc(NCc2nc3cc(NCc4nccs4)ccc3s2)n1` [Example 43, 3-Methyl-2-{3-[({5-[(1,3-thiazol-2-ylmethyl)amino]-1,3-benzothiazol-2-yl}methyl)amino]-1,2,4-triazin-5-yl}phenol] registered an IC50 of 410 nM.

Compound `COc1cccc(OC)c1-c1cnnc(NCc2nc3c(s2)CCCC3)n1` [Example 57, 5-(2,6-Dimethoxyphenyl)-N-(4,5,6,7-tetrahydro-1,3-benzothiazol-2-ylmethyl)-1,2,4-triazin-3-amine] showed an IC50 of 1900 nM. Compared with the last compound, the IC50 is about 4.6-fold higher.

Consider `Oc1cccc2sc(CNc3nncc(-c4ccccc4C(F)(F)F)n3)nc12` [Example 64, 2-[({5-[2-(Trifluoromethyl)phenyl]-1,2,4-triazin-3-yl}amino)methyl]-1,3-benzothiazol-4-ol], for which half-maximal inhibition (IC50) required 5600 nM.

On to `COc1cccc(C)c1-c1cnnc(NCc2nc3cccnc3s2)n1` [Example 70, 5-(2-Methoxy-6-methylphenyl)-N-([1,3]thiazolo[5,4-b]pyridin-2-ylmethyl)-1,2,4-triazin-3-amine], for which the IC50 is 3100 nM. This IC50 is about 1.8-fold lower than that of the compound before.

Consider `COc1ccc2sc(CNc3nncc(-c4c(C)cc(NC(=O)CN(C)C)cc4C)n3)nc2c1` [Example 75, 2-Dimethylamino-N-(4-{3-[(5-methoxy-benzothiazol-2-ylmethyl)-amino]-[1,2,4]triazin-5-yl}-3,5-dimethyl-phenyl)-acetamide], for which it took 190 nM to reach half-maximal inhibition (IC50).

`COc1cccc(OC)c1-c1cnnc(N(CC(=O)O)Cc2nc3ccccc3s2)n1` [Example 90, {(1,3-Benzothiazol-2-ylmethyl)[5-(2,6-dimethoxyphenyl)-1,2,4-triazin-3-yl]amino}acetic acid] showed an IC50 of 2000 nM.

Compound `NCCSc1ccc2sc(CNc3nncc(-c4c(Cl)cccc4Cl)n3)nc2c1` [Example 94, N-({5-[(2-Aminoethyl)thio]-1,3-benzothiazol-2-yl}methyl)-5-(2,6-dichlorophenyl)-1,2,4-triazin-3-amine] showed an IC50 of 250 nM.

In the case of `COc1ccc2sc(CNc3nncc(-c4cc(-c5ccn[nH]5)ccc4Cl)n3)nc2c1` [Example 97, 5-[2-Chloro-5-(1H-pyrazol-3-yl)phenyl]-N-[(5-methoxy-1,3-benzothiazol-2-yl)methyl]-1,2,4-triazin-3-amine], the concentration for half-maximal inhibition (IC50) came to 53 nM.

For `COc1ccc2sc(CNc3nncc(-c4cc(-c5cn[nH]c5)ccc4Cl)n3)nc2c1` [Example 98, 5-[2-Chloro-5-(1H-pyrazol-4-yl)phenyl]-N-[(5-methoxy-1,3-benzothiazol-2-yl)methyl]-1,2,4-triazin-3-amine], it took 49 nM to reach half-maximal inhibition (IC50).

In turn, `COc1ccc2sc(CNc3nncc(-c4cc(-c5cccnc5)ccc4Cl)n3)nc2c1` [Example 99, 5-(2-Chloro-5-pyridin-3-ylphenyl)-N-[(5-methoxy-1,3-benzothiazol-2-yl)methyl]-1,2,4-triazin-3-amine] registered an IC50 of 150 nM.

In turn, `COc1ccc2sc(CNc3nncc(-c4cc(-c5cn(CCO)nn5)ccc4Cl)n3)nc2c1` [Example 100, 2-[4-(4-Chloro-3-{3-[(5-methoxy-benzothiazol-2-ylmethyl)-amino]-[1,2,4]triazin-5-yl}-phenyl)-[1,2,3]triazol-1-yl]-ethanol] displayed an IC50 of 255 nM.

`COc1ccc2sc(CNc3nncc(-c4ccc(N5CCNCC5)cc4Cl)n3)nc2c1` [Example 107, N-[(5-Methoxy-1,3-benzothiazol-2-yl)methyl]-5-(2-chloro-4-piperazin-1-ylphenyl)-1,2,4-triazin-3-amine] returned an IC50 of 670 nM. This IC50 is about 2.6-fold higher than that of the compound before.

As to `Cc1cc(NCCN(C)C)cc(C)c1-c1cnnc(NCc2nc3cc(OCCN)ccc3s2)n1` [Example 108, N-[4-(3-{[5-(2-Amino-ethoxy)-benzothiazol-2-ylmethyl]-amino}-[1,2,4]triazin-5-yl)-3,5-dimethyl-phenyl]-N',N'-dimethyl-ethane-1,2-diamine], it took 1400 nM to reach half-maximal inhibition (IC50).
